Measurements: patent US11066398B2, “Small molecule c-Myc inhibitors” (THE SCRIPPS RESEARCH INSTITUTE, priority 2013, dated 2021)
Converted amounts (≈) assume the structure as drawn. “Also recorded” adds a separate entry of the source. Read-outs that look alike come from different tables or passages of the source.

How the values were obtained:
[1] = target: ATG-Myc (Homo sapiens, UniProt P01106); experiment: Myc-induced oncogenic transformation (focus assay) in chicken embryo fibroblasts; type: cell-based; conditions: for Inhibition of ATG-Myc focus formation: CEF focus assay, concentration of 10 μM; for Inhibition of Myc oncogenic activity in CEF transformation assay: ATG-Myc; for EOT (efficiency of transformation): focus counts in the presence of inhibitor over focus counts of control plates, CEF infected with RCAS ATG-Myc
ATG-Myc, sequence (P01106 whole entry): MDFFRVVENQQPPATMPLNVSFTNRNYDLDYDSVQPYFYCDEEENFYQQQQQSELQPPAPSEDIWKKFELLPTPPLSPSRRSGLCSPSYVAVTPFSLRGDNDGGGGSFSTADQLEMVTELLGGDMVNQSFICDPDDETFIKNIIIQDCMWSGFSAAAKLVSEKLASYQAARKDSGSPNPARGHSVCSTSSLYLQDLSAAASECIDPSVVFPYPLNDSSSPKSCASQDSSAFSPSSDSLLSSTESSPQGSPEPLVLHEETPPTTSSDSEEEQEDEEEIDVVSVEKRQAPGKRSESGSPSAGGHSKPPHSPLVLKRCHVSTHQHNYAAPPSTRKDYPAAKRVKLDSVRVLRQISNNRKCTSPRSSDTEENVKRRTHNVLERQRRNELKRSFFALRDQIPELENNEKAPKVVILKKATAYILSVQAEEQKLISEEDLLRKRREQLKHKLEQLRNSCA

[2] = Solubility in water; type: physicochemical
[3] = test system: NDRG1 (N-myc downregulated gene 1); experiment: NDRG1 expression by Western blot in MDA-MB-231 and NCI-H460 cells; type: cell-based, human; conditions: 20 μM, 24 hrs
Description: (§1) NCI-H460 cells were grown in RPMI medium, and MDA-MB-231 cells were grown in DMEM medium; both media contained 10% FBS. KJ-Pyr-9 and 10058-F4 were added at a concentration of 20 μM and the cells were treated for 24 hrs before Western blot analysis.
(§2) Interference with Myc transcriptional activity of Myc affects the transcription of a large number of target genes and can function as activator or repressor. […] NDRG1 is a direct transcriptional target of Myc that acts as a repressor of this gene. For comparison, we used the previously identified inhibitor of MYC-MAX dimerization that binds to the disordered monomer and prevents Myc from adopting a conformation needed for the interaction with MAX (Wang et al., Mol. Cancer Ther. 6:2399-2408, 2007; and Huang et al., Exp. Hematol. 34:1480-1489, 2006). Both KJ-Pyr-9 and 10058-F4 cause an increase of NDRG1 expression (FIG. 4).

[4] = test system: MYC; experiment: Myc levels by Western blot in MDA-MB-231 and NCI-H460 cells; type: cell-based, human; conditions: 20 μM, 24 hrs
Description: as §1, §2

[5] = Pharmacokinetics and tolerability in mice; type: in vivo, mouse; conditions: for concentration at 4 h: ip, mice, 10 mg/kg intraperitoneally
Description: (§3) In vivo activity of KJ-Pyr-9: Previous Myc inhibitors have not been effective in animal model studies. These failures resulted from insufficient affinity toward Myc and poor pharmacokinetic properties.
(§4) Pharmacokinetics. Three mice were injected with 10 mg/kg KJ-Pyr-9 dissolved in 10:10:80 Tween-80:DMSO:5% Dextrose/water intraperitoneally. At 4 hours concentrations of KJ-Pyr-9 in the plasma and in the brain were 3.5 and 12.4 μM respectively. Rats were dosed with 1 mg/kg i.v.; elimination half lives in plasma were approximately 1.84 h (rats).

[6] = Pharmacokinetics in rats; type: in vivo, rat; conditions: 1 mg/kg i.v.
Description: as §3, §4

[7] = test system: xenograft of MDA-MB-231 cells; experiment: MDA-MB-231 xenograft in nude mice; type: in vivo, mouse; conditions: 10 mg/kg daily i.p.
Description: When tumors reached a volume of 100 mm^3 half of the mice were given daily i.p. injections of 10 mg/kg KJ-PYR-9 and the other half received vehicle only. Tumor growth was followed for 31 days. (A) Tumor volumes of treated and untreated animals. (B) Tumor weights of treated and untreated animals. (C) Time course of tumor volumes.
To test the in vivo effectiveness of KJ-Pyr-9, nude mice received a xenograft of MDA-MB-231 cells suspended in Matrigel and injected subcutaneously into the left and right flanks. When the tumors had reached an average volume of 100 mm^3, mice were treated daily with 10 mg/kg KJ-Pyr-9 or vehicle control by intraperitoneal injection for 31 days. […] At the conclusion of the experiment the tumors were extracted and weighed. […] Treatment with KJ-Pyr-9 had no effect on the body weight of the animals.
Xenograft experiments. […] Tumor volume and mouse weight were measured daily. […] Tumors were weighed.
Statistical methods. Tumor volumes were calculated using (length)×(width)^2. Tumor volumes were evaluated using Efron's Bootstrap (ISBN:0412042312) procedures as implemented in the R statistics program (Wu and Houghton, J. Biopharma. Stat. 19:755-762, 2009). Mean volumes and 90% confidence intervals were determined using bootstrap resampling with 10^6 randomizations and graphed using the ggplot2 package (ISBN:0387981403). P-values were determined using the resampling permutation method with 10^6 randomizations.

[8] = target: N-Myc (Homo sapiens, UniProt P04198); conditions: CEF, dose response
N-Myc, sequence (P04198 whole entry, species assumed): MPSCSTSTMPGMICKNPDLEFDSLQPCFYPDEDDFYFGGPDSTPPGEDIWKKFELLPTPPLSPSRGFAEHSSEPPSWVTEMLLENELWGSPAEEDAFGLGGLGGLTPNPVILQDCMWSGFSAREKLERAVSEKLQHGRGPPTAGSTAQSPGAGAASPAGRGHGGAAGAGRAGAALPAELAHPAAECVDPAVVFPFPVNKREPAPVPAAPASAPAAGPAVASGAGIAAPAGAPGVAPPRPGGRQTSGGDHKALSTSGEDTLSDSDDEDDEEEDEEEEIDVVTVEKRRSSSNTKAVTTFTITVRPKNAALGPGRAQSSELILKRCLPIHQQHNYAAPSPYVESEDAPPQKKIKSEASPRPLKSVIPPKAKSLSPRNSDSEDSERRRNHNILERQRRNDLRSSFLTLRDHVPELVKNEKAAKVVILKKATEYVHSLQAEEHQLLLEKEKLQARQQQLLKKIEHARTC
Description: (§5) Data from a representative experiment conducted with the cells derived from a single chicken embryo.
(§6) The assay of oncogene-induced cellular transformation in CEF was also used to determine selectivity of KJ-Pyr-9 for Myc.
(§7) Assay for oncogenic transformation in cell culture. […] CEF were infected with a series of ten-fold dilutions of the indicated virus. Compounds were added to the nutrient agar overlay. Additional compound-containing overlay was added every 3 days until experimental end point.

[9] = target: v-Src (Rous sarcoma virus subgroup A, UniProt P00524); conditions: CEF, dose response
v-Src, sequence (P00524 whole entry): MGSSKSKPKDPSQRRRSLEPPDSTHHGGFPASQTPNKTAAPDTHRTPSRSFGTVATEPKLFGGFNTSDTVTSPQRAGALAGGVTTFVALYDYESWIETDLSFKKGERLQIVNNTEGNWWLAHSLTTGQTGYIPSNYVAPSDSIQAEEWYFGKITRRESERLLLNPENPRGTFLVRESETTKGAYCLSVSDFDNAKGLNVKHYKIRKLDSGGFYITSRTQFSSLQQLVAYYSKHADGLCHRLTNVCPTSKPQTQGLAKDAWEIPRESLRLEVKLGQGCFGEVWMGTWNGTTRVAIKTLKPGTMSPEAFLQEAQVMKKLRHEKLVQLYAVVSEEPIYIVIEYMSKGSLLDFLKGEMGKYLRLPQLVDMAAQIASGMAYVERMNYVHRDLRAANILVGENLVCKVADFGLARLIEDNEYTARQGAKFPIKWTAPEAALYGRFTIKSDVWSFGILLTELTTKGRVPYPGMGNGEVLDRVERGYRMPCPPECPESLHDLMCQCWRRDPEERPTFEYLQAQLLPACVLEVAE
Description: as §5, §6, §7

[10] = target: v-Jun (Avian sarcoma virus, UniProt P05411); conditions: CEF, dose response
v-Jun, sequence (P05411 whole entry): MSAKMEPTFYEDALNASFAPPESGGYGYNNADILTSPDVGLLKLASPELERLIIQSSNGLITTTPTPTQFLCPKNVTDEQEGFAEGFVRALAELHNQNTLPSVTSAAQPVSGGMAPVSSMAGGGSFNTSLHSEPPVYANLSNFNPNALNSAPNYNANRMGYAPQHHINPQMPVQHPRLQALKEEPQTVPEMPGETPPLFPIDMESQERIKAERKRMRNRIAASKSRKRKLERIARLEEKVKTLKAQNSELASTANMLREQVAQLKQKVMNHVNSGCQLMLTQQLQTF
Description: as §5, §6, §7

[11] = target: MYC^332-439 with MAX (Homo sapiens, UniProt P01106); conditions: HEK293 cells, 20 μM, compared to PKA RII:RII control biosensor
MYC^332-439 with MAX, sequence (P01106 347-454): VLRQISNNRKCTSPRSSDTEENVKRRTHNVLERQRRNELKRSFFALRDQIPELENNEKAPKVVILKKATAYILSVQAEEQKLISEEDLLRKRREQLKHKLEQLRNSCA
Description: (§8) We used an efficient and sensitive PCA biosensor which is based on the PPI involving the full length MAX protein and the C-terminal MAX-interaction-domain in MYC (MYC^332-439).
(§9) HEK293 cells were grown in Dulbecco's Modified Eagle's Medium (DMEM) supplemented with 10% fetal bovine serum (FBS). The indicated Rluc-PCA expression constructs were transiently overexpressed in a 24-well plate format. […] Following treatment, the growth medium was exchanged and cells were resuspended in phosphate buffered saline (PBS). Cell suspensions were transferred to white walled 96-well plates and were subjected to bioluminescence analysis using the LMax II 384 luminometer (Molecular Devices). Rluc bioluminescence signals were integrated for 10 sec following addition of the Rluc substrate benzyl-coelenterazine to intact cells (5 μM; Nanolight).

[12] = target: MAX homodimerization (Homo sapiens, UniProt P61244); conditions: HEK293 cells, 20 μM
MAX homodimerization, sequence (P61244 whole entry): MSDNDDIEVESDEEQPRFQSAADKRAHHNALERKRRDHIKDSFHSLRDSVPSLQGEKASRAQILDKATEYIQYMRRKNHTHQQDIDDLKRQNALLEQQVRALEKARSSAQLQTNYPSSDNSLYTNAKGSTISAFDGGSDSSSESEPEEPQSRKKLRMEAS
Description: as §8, §9

[13] = test system: NCI-H460; conditions: NCI-H460, 72 hrs, 2.5% FBS
[14] = test system: MDA-MB-231; conditions: MDA-MB-231, 216 hrs, 2.5% FBS
[15] = test system: SUM-159PT; conditions: 120 hrs, 2.5% FBS
[16] = test system: Burkitt's lymphoma cell lines (Akata, Ramos, Raji); conditions: 72 hours
Description: (A) Akata, (B) Ramos, (C) Raji. 10^3 cells were seeded per well on 96-well plates and were treated with the indicated concentrations of KJ-Pyr-9 for 72 hours. Cell proliferation was determined by resazurin fluorescence.

[17] = test system: normal quail embryo fibroblasts (QEF); conditions: 25 or 50 μM, 24 hrs
[18] = test system: QEF oncogenically transformed by the v-jun oncogene (VJ); conditions: 25 or 50 μM, 24 hrs
[19] = test system: QEF transformed by methylcholanthrene (QT6); conditions: 25 or 50 μM, 24 hrs
[20] = test system: cells transformed by v-myc (Q8, QEF/MC29)
[21] = test system: K-562; conditions: K-562, 25 or 50 μM, 24 hrs
[22] = test system: MOLT-4; conditions: MOLT-4, 25 or 50 μM, 24 hrs
[23] = test system: HL-60; conditions: HL-60, 25 or 50 μM, 24 hrs
[24] = test system: human fibroblasts (hFB); conditions: 25 or 50 μM, 24 hrs
[25] = test system: SW-480; conditions: SW-480, 25 or 50 μM, 24 hrs
[26] = test system: NDRG1; conditions: 10 mg/kg daily i.p., Western blot of frozen tumor samples
Description: In order to determine drug activity in tumor cells, protein lysates were prepared from frozen tumor samples and analyzed by Western blot.
Xenograft experiments. […] Cells were suspended in high concentration Matrigel (BD Biosciences) prior to injection. Xenograft tumors were allowed to grow until the average volume of the tumors reached 100 mm^3 as measured by external calipers. At this point, the mice were divided into two groups. […] Tumor volume and mouse weight were measured daily. Vehicle used in all cases was 10:10:80 DMSO:Tween-80:5% dextrose in water. The mice were treated for a period of 31 days. At the end of the experiment, the mice were euthanized and tumors excised. Tumors were weighed. Samples of each tumor were fixed in formalin for histology and frozen for Western blotting. All vertebrate experiments were conducted with the approval of the TSRI IACUC.

[27] = test system: v-src, and v-jun; conditions: CEF specificity assay
Description: as §7
The specificity of the inhibitory activities of the analog compounds was also examined.

For `NC(=O)c1ccc(-c2cc(-c3ccc([N+](=O)[O-])cc3)nc(-c3ccco3)c2)cc1` [CG-RS-44, 4-(2-(furan-2-yl)-6-(4-nitrophenyl)pyridin-4-yl)benzamide], the “Dose dependence of inhibition of ATG-Myc focus formation” value ([1]; 0-20 μM (0, 1.25, 2.5, 5, 10, and 20 μM)) was “dose-dependent inhibition”, the “Comparison of IC50 values for ATG-Myc focus formation” value ([1]; CEF assay) was “better than all analogs tested” and the “Inhibition of ATG-Myc focus formation” value [1] was “no foci formation”. The “Inhibition of Myc oncogenic activity in CEF transformation assay” value ([1]; listed as KJ-Pyr-9) was “effective; also recorded: strongly inhibited”, the solubility [2] was 12.5 µM (≈ 4.82 µg/mL) and the NDRG1 expression [3] was “increase”. The “Effect on Myc levels” value [4] was “only a slight effect”, the Acute toxicity ([5]; dose of 10 mg/kg) was “no signs of acute toxicity” and the concentration at 4 h ([5]; mouse, brain, read-out: Concentration in the brain) was 12.4 µM. The “Blood brain barrier penetration” value ([5]; mouse, in vivo) was “crossed the blood brain barrier”, the “Brain versus blood concentration” value ([5]; mouse, in vivo) was “higher concentrations in brain tissue than in the blood” and the concentration at 4 h ([5]; mouse, plasma, read-out: Concentration in the plasma) was 3.5 µM. For the same compound, the “Elimination half life in plasma” value [6] was “approximately 1.84 h”, the “Body weight of the animals” value ([7]; 31 days) was “no effect” and the Tumor volume ([7]; by day 31) was “had not increased significantly”. For the same compound, the Tumor weight ([7]; end of experiment (31 days)) was “halt tumor growth”, the “Onset of inhibition of tumor growth” value ([7]; nude mice) was “noted after eight days of treatment” and the “Inhibition of oncogenic activity of N-Myc” value [8] was “strongly inhibited”. For the same compound, the “Inhibition of oncogenic transformation by v-Src” value [9] was “unaffected”, the “Inhibition of oncogenic transformation by v-Jun” value [10] was “inhibited at significantly higher concentrations” and the “Complex formation of MYC^332-439 with MAX (Rluc PCA)” value [11] was “selectively reduced complex formation”. The “MAX homodimerization (Rluc PCA)” value [12] was “interfered with MAX homodimerization, albeit to a lesser degree”, the Cell proliferation [13] was “inhibited” and the Cell proliferation [14] was “inhibited”. The Cell proliferation [15] was “inhibited”, the Cell proliferation [16] was “very sensitive” and the Cell growth [17] was “only slightly impaired in their growth”. The Cell growth [18] was “only slightly impaired in their growth”, the Cell growth [19] was “only slightly impaired in their growth” and the Cell growth [20] was “significantly more affected”. For the same compound, the Cell proliferation [21] was “strongly inhibited”, the Cell proliferation [22] was “strongly inhibited” and the Cell proliferation [23] was “strongly inhibited”. The Cell proliferation [24] was “not affected”, the Cell proliferation [25] was “not affected” and the “Expression of NDRG1 in tumor lysates” value [26] was “significantly enhanced”.
With `N#Cc1ccc(-c2cc(-c3ccc(C(N)=O)cc3)cc(-c3ccco3)n2)cc1` [CG-RS-47] the “Inhibition of ATG-Myc focus formation” value [1] was “no foci formation” and the “Specificity for inhibiting Myc over v-src, 111047R and v-jun” value [27] was “some degrees of specificity”.
For `NC(=O)c1ccc(-c2cc(-c3ccc([N+](=O)[O-])cc3)nc(-c3ccco3)c2)o1` [CG-RS-50, 5-(2-(furan-2-yl)-6-(4-nitrophenyl)pyridin-4-yl)furan-2-carboxamide], the “Inhibition of ATG-Myc focus formation” value [1] was “some inhibiting activities” and the “Inhibition of Myc oncogenic activity in CEF transformation assay” value [1] was “effective”.
With `NC(=O)c1ccc(-c2cc(-c3ccc(C(F)(F)F)cc3)nc(-c3ccco3)c2)cc1` [CG-RS-54] the “Inhibition of ATG-Myc focus formation” value [1] was “some inhibiting activities”.
With `NC(=O)c1ccc(-c2cc(-c3ccc(OC(F)(F)F)cc3)nc(-c3ccco3)c2)cc1` [CG-RS-55] the “Inhibition of ATG-Myc focus formation” value [1] was “some inhibiting activities”.
For `CS(=O)(=O)c1ccc(-c2cc(-c3ccc(C(N)=O)cc3)cc(-c3ccco3)n2)cc1` [CG-RS-58], the “Inhibition of ATG-Myc focus formation” value [1] was “no inhibition”.
For `NC(=O)c1ccc(-c2cc(-c3ccc(SC(F)(F)F)cc3)nc(-c3ccco3)c2)cc1` [CG-RS-61], the “Inhibition of ATG-Myc focus formation” value [1] was “no inhibition”.
In the case of `COC(=O)c1ccc(-c2cc(-c3ccc(C(N)=O)cc3)cc(-c3ccco3)n2)cc1` [CG-RS-64], the “Inhibition of ATG-Myc focus formation” value [1] is reported as “no inhibition”.
In the case of `COC(=O)c1cccc(-c2cc(-c3ccc(C(N)=O)cc3)cc(-c3ccco3)n2)c1` [CG-RS-70], the “Cell growth in CEF focus assay” value [1] is reported as “slight decrease in cell growth” and the “Inhibition of ATG-Myc focus formation” value [1] is reported as “no foci formation”.
For `NC(=O)c1ccc(-c2cc(-c3ccc(Br)cc3)nc(-c3ccc([N+](=O)[O-])cc3)c2)cc1` [CG-RS-90], the “Inhibition of ATG-Myc focus formation” value [1] was “no inhibition”.
With `NC(=O)c1ccc(-c2cc(-c3ccc([N+](=O)[O-])cc3)nc(-c3ccccc3Br)c2)cc1` [CG-RS-91] the “Inhibition of ATG-Myc focus formation” value [1] was “no inhibition”.
With `NC(=O)c1ccc(-c2cc(-c3ccc([N+](=O)[O-])cc3)nc(-c3cccc(Br)n3)c2)cc1` [CG-RS-106] the “Inhibition of ATG-Myc focus formation” value [1] was “no inhibition”.
With `NC(=O)c1ccc(-c2cc(-c3ccc([N+](=O)[O-])cc3)nc(-c3ccc(Br)cn3)c2)cc1` [CG-RS-123] the “Inhibition of ATG-Myc focus formation” value [1] was “no inhibition”.
In the case of `NC(=O)c1ccc(-c2cc(-c3ccc([N+](=O)[O-])cc3)nc(-c3ccccn3)c2)cc1` [CG-RS-128], the “Inhibition of ATG-Myc focus formation” value [1] is reported as “no inhibition”.
With `NC(=O)c1ccc(-c2cc(-c3ccncc3)nc(-c3ccc([N+](=O)[O-])cc3)c2)cc1` [CG-RS-129] the “Cell growth in CEF focus assay” value [1] was “slight decrease in cell growth”, the “Inhibition of ATG-Myc focus formation” value [1] was “no foci formation” and the “Specificity for inhibiting Myc over v-src, 111047R and v-jun” value [27] was “some degrees of specificity”.
With `CCc1ccc(/C=C2/SC(=S)NC2=O)cc1` [Compound 10058-F4, reference compound] the NDRG1 expression [3] was “increase” and the “Effect on Myc levels” value [4] was “strong decrease”.
For `NC(=O)c1ccc(-c2ccc(-c3cc(-c4ccccc4)nc(-c4ccco4)c3)cc2)cc1` [KJ-Pyr-4, 4′-(2-(furan-2-yl)-6-phenylpyridin-4-yl)-[1,1′-biphenyl]-4-carboxamide], the “EOT (efficiency of transformation)” value [1] was 1.12.
For `COc1ccc(-c2cc(-c3ccc(C(N)=O)o3)cc(-c3ccco3)n2)cc1` [KJ-Pyr-6, 5-(2-(furan-2-yl)-6-(4-methoxyphenyl)pyridin-4-yl)furan-2-carboxamide], the “EOT (efficiency of transformation)” value [1] was 0.79.
